Target: STING (Homo sapiens, UniProt Q86WV6, G230A/H232R/R293Q/R71H)
Experiment: STING reporter assay in THP1-Dual KO-IFNAR2 cells (2′3′cGAMP stimulation, luciferase reporter)
Format: cell-based
Details: 15 μM 2′3′cGAMP stimulation, 24 h, read-out: Pharmaron, THP1_IFNAR2 STING 24 h Luci Normalized: GeoMean EC50
In short: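 EC50 from secreted luciferase (QUANTI-Luc Plus luminescence of supernatant) after 24 h at 37 °C, 5% CO2. Cells: THP1-Dual KO-IFNAR2, treated with compound (0.0017-100 μM final) plus lipofected 2′3′cGAMP at 15 μM final.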

STING, sequence (Q86WV6 whole entry R71H/G230A/H232R/R293Q): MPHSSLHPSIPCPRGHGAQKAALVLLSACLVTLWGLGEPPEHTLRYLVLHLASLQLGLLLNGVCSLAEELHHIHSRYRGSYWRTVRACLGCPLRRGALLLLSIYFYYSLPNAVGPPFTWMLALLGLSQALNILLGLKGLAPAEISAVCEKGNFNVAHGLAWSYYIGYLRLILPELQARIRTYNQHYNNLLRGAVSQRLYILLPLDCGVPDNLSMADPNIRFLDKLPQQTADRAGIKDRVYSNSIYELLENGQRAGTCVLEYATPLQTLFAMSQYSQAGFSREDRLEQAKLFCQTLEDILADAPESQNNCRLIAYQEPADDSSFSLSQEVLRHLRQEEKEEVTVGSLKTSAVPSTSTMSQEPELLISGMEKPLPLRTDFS

Compound | EC50 [nM]
CC(=O)Nc1c[nH]c2ccc(OC3CCc4cc(C(F)(F)F)ccc4C3)cc12 (stereo not drawn) [Compound 436, N-(5-((6-(trifluoromethyl)-1,2,3,4-tetrahydronaphthalen-2-yl)oxy)-1H-indol-3-yl)acetamide] | 40 to 200
O=C(Nc1c[nH]c2ccc(CCOc3ccc(C(F)(F)F)cc3)cc12)C1COC1 [Compound 164, N-(5-(2-(4-(trifluoromethyl)phenoxy)ethyl)-1H-indol-3-yl)oxetane-3-carboxamide] | 200 to 1000
CC(=O)Nc1c[nH]c2ccc(CCOc3cnc4c(OC(F)(F)F)cccc4c3)cc12 [Compound 477, N-[5-(2-{[8-(trifluoromethoxy)quinolin-3-yl]oxy}ethyl)-1H-indol-3-yl]acetamide] | 1000 to 5000
COC1CC(C(=O)Nc2c[nH]c3ccc(O[C@H]4C[C@@H](c5ccc(C(F)(F)F)cc5)C4)cc23)C1 (stereo partly drawn) [Compound 159, 3-methoxy-N-{5-[(1S,3S)-3-[4-(trifluoromethyl)phenyl]cyclobutoxy]-1H-indol-3-yl}cyclobutane-1-carboxamide] | 40 to 200
O=C(Nc1c[nH]c2ccc(OCCc3ccc(C(F)(F)F)cc3)cc12)C1CC1(F)Cl (stereo not drawn) [Compound 216, 2-chloro-2-fluoro-N-(5-(4-(trifluoromethyl)phenethoxy)-1H-indol-3-yl)cyclopropane-1-carboxamide] | 200 to 1000
CC[C@H](O)C(=O)Nc1c[nH]c2ccc(OCCc3ccc(C(F)(F)F)cc3)cc12 [Compound 430, (S)-2-hydroxy-N-(5-(4-(trifluoromethyl)phenethoxy)-1H-indol-3-yl)butanamide] | 40 to 200
CC(=O)CCc1ccc(OCCc2ccc3[nH]cc(NC(C)=O)c3c2)cc1 [Compound 549, N-(5-(2-(4-(3-oxobutyl)phenoxy)ethyl)-1H-indol-3-yl)acetamide] | 1000 to 5000
CC(=O)Nc1c[nH]c2ccc(CCOc3cc(Cl)nc(C(F)(F)F)c3)cc12 [Compound 559, N-(5-(2-((2-chloro-6-(trifluoromethyl)pyridin-4-yl)oxy)ethyl)-1H-indol-3-yl)acetamide] | 200 to 1000
CO[C@H]1C[C@@](C)(C(=O)Nc2c[nH]c3ccc(OCC[C@@H]4C[C@@H]5CN(CC(F)(F)F)C[C@@H]5C4)cc23)C1 [Compound 515, (1s,3S)-3-methoxy-1-methyl-N-(5-(2-((3aR,5r,6aS)-2-(2,2,2-trifluoroethyl)octahydrocyclopenta[c]pyrrol-5-yl)ethoxy)-1H-indol-3-yl)cyclobutane-1-carboxamide] | 1000 to 5000
COCCOCC(=O)Nc1c[nH]c2ccc(OCCc3ccc(C(F)(F)F)cc3)cc12 [Compound 407, 2-(2-methoxyethoxy)-N-(5-(4-(trifluoromethyl)phenethoxy)-1H-indol-3-yl)acetamide] | 200 to 1000
O=C(Nc1c[nH]c2ccc(OCc3ccc(C(F)(F)F)cc3)cc12)C1CC1(F)Cl (stereo not drawn) [Compound 318, 2-chloro-2-fluoro-N-(5-((4-(trifluoromethyl)benzyl)oxy)-1H-indol-3-yl)cyclopropane-1-carboxamide] | 200 to 1000
O=C(Nc1c[nH]c2ccc(O[C@H]3C[C@H](c4ccc(C(F)(F)F)cc4)C3)cc12)C1CC1 [Compound 147, N-(5-(trans-3-(4-(trifluoromethyl)phenyl)cyclobutoxy)-1H-indol-3-yl)cyclopropanecarboxamide] | 40 to 200
O=C(Nc1c[nH]c2ccc(O[C@H]3C[C@H](c4ccc(C(F)(F)F)cc4)C3)cc12)C1(F)CC1 [Compound 489, l-fluoro-N-{5-[(1R,3R)-3-[4-(trifluoromethyl)phenyl]cyclobutoxy]-1H-indol-3-yl}cyclopropane-1-carboxamide] | 200 to 1000
CC(=O)Nc1c[nH]c2ccc(OCCC3CCN(CC(F)(F)F)CC3)cc12 [Compound 122, N-(5-(2-(1-(2,2,2-trifluoroethyl)piperidin-4-yl)ethoxy)-1H-indol-3-yl)acetamide] | 200 to 1000
O=C(Nc1c[nH]c2ccc(O[C@H]3C[C@H](c4ccc(C(F)(F)F)nc4)C3)cc12)c1ccc(C(F)(F)F)cc1 [Compound 465, 4-(trifluoromethyl)-N-(5-(trans-3-(6-(trifluoromethyl)pyridin-3-yl)cyclobutoxy)-1H-indol-3-yl)benzamide] | 200 to 1000
3-(hydroxymethyl)-N-(5-(2-((3aR,5r,6aS)-2-(2,2,2-trifluoroethyl)octahydrocyclopenta[c]pyrrol-5-yl)ethoxy)-1H-indol-3-yl)cyclobutane-1-carboxamide [Compound 343] | 200 to 1000
O=C(Nc1c[nH]c2ccc(O[C@H]3C[C@@H](c4ccc(C(F)(F)F)cc4)C3)cc12)C1CC1(F)Cl (stereo partly drawn) [Compound 575, 2-chloro-2-fluoro-N-(5-(cis-3-(4-(trifluoromethyl)phenyl)cyclobutoxy)-1H-indol-3-yl)cyclopropane-1-carboxamide] | 200 to 1000
CC(=O)Nc1c[nH]c2ccc(CCOc3ccc(C4CCC4)cc3)cc12 [Compound 230, N-(5-(2-(4-cyclobutylphenoxy)ethyl)-1H-indol-3-yl)acetamide] | 40 to 200
CC(C)(O)CC(=O)Nc1c[nH]c2ccc(OCC[C@@H]3C[C@@H]4CN(CC(F)(F)F)C[C@@H]4C3)cc12 [Compound 523, 3-hydroxy-3-methyl-N-(5-(2-((3aR,5r,6aS)-2-(2,2,2-trifluoroethyl)octahydrocyclopenta[c]pyrrol-5-yl)ethoxy)-1H-indol-3-yl)butanamide] | 200 to 1000
O=C(Nc1c[nH]c2ccc(O[C@H]3C[C@@H](c4ccc(C(F)(F)F)cc4)C3)cc12)C1CCOCC1 [Compound 365, N-(5-(cis-3-(4-(trifluoromethyl)phenyl)cyclobutoxy)-1H-indol-3-yl)tetrahydro-2H-pyran-4-carboxamide] | 40 to 200

Now from value to compound:

EC50 [nM] | Compound
200 to 1000 | CC1(C)OC(C)(C)C1C(=O)Nc1c[nH]c2ccc(OCc3ccc(C(F)(F)F)cc3)cc12 [Compound 496, 2,2,4,4-tetramethyl-N-(5-((4-(trifluoromethyl)benzyl)oxy)-1H-indol-3-yl)oxetane-3-carboxamide]
1000 to 5000 | CC(=O)Nc1c[nH]c2ccc(CCNc3ccc(C(F)(F)F)nc3)cc12 [Compound 126, N-(5-(2-((6-(trifluoromethyl)pyridin-3-yl)amino)ethyl)-1H-indol-3-yl)acetamide]
1000 to 5000 | CC(=O)Nc1c[nH]c2ccc(CCOc3cncc(C(F)(F)F)c3)cc12 [Compound 481, N-[5-(2-{[5-(trifluoromethyl)pyridin-3-yl]oxy}ethyl)-1H-indol-3-yl]acetamide]
40 to 200 | CC(=O)Nc1c[nH]c2ccc(CCOc3ccc(OC(F)(F)F)c(F)c3)cc12 [Compound 438, N-(5-{2-[3-fluoro-4-(trifluoromethoxy)phenoxy]ethyl}-1H-indol-3-yl)acetamide]
200 to 1000 | CC(=O)Nc1c[nH]c2ccc(CCOc3ccc(C4CCN(CC(F)(F)F)CC4)cc3)cc12 [Compound 170, N-(5-(2-(4-(1-(2,2,2-trifluoroethyl)piperidin-4-yl)phenoxy)ethyl)-1H-indol-3-yl)acetamide]
5000 to 100000 | CC(=O)Nc1c[nH]c2ccc(CCOc3cncc(C(F)F)c3)cc12 [Compound 439, N-[5-(2-{[5-(difluoromethyl)pyridin-3-yl]oxy}ethyl)-1H-indol-3-yl]acetamide]
200 to 1000 | CCC(=O)Nc1c[nH]c2ccc(COc3ccc(C(F)(F)F)cc3)cc12 [Compound 130, N-(5-((4-(trifluoromethyl)phenoxy)methyl)-1H-indol-3-yl)propionamide]
200 to 1000 | O=C(Nc1c[nH]c2ccc(OCCc3ccc(C(F)(F)F)nc3)cc12)C1CCC1 [Compound 142, N-(5-(2-(6-(trifluoromethyl)pyridin-3-yl)ethoxy)-1H-indol-3-yl)cyclobutanecarboxamide]
200 to 1000 | COCC1(C(=O)Nc2c[nH]c3ccc(CCOc4ccc(C(F)(F)F)cc4)cc23)CC1 [Compound 176, 1-(methoxymethyl)-N-(5-{2-[4-(trifluoromethyl)phenoxy]ethyl}-1H-indol-3-yl)cyclopropane-1-carboxamide]
200 to 1000 | O=C(Nc1c[nH]c2ccc(OCC[C@@H]3C[C@@H]4CN(CC(F)(F)F)C[C@@H]4C3)cc12)C1CC1 [Compound 182, N-(5-(2-((3aR,5r,6aS)-2-(2,2,2-trifluoroethyl)octahydrocyclopenta[c]pyrrol-5-yl)ethoxy)-1H-indol-3-yl)cyclopropanecarboxamide]
40 to 200 | CC(=O)Nc1c[nH]c2ccc(OCCC34CC(c5ccccc5)(C3)C4)cc12 [Compound 262, N-(5-(2-(3-phenylbicyclo[1.1.1]pentan-1-yl)ethoxy)-1H-indol-3-yl)acetamide]
5000 to 100000 | CC(=O)Nc1c[nH]c2ccc(CCOc3cnc(C(F)(F)F)nc3)cc12 [Compound 184, N-(5-(2-((2-(trifluoromethyl)pyrimidin-5-yl)oxy)ethyl)-1H-indol-3-yl)acetamide]
40 to 200 | O=C(Nc1c[nH]c2ccc(OCC[C@@H]3C[C@@H]4CN(CC(F)(F)F)C[C@@H]4C3)cc12)C1CC(F)C1 (stereo partly drawn) [Compound 589, 3-fluoro-N-(5-(2-((3aR,5r,6aS)-2-(2,2,2-trifluoroethyl)octahydrocyclopenta[c]pyrrol-5-yl)ethoxy)-1H-indol-3-yl)cyclobutane-1-carboxamide]
200 to 1000 | O=C(Nc1c[nH]c2ccc(OCc3ccc(C(F)(F)F)cc3)cc12)C1CC(F)(F)C1 [Compound 584, 3,3-difluoro-N-(5-((4-(trifluoromethyl)benzyl)oxy)-1H-indol-3-yl)cyclobutane-1-carboxamide]
40 to 200 | CC1(C(=O)Nc2c[nH]c3ccc(OCc4ccc(C(F)(F)F)cc4)cc23)COC1 [Compound 166, 3-methyl-N-(5-((4-(trifluoromethyl)benzyl)oxy)-1H-indol-3-yl)oxetane-3-carboxamide]
1000 to 5000 | CC(=O)Nc1c[nH]c2ccc(CC(C)Oc3ccc(C(F)(F)F)cc3)cc12 (stereo not drawn) [Compound 287, N-(5-(2-(4-(trifluoromethyl)phenoxy)propyl)-1H-indol-3-yl)acetamide]

— US12503436B2, “Compounds and compositions for treating conditions associated with STING activity” (NOVARTIS PHARMA AG, priority 2021, dated 2025)
